Laboratory results from PubChem BioAssay (NCI).
Values joined by “and” are separate entries in the source; they are usually repeats but may differ in a detail not shown here. Identical values can stand only once.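 Where inhibition never reached the appropriate level, the endpoint shown equals the highest concentration tested. Otherwise, values were interpolated linearly from a five-concentration, 48-hour dose response in 96-well plates. The concentration for 50% growth inhibition is given as GI50. Definition used: TGI = concentration required for complete inhibition of growth.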

Assays:
Experiment in all cases: NCI-60 cell line screen, 48 h
[1] = system: BT-549 breast
[2] = system: CAKI-1 renal
[3] = system: HOP-62 NSCLC
[4] = system: HS 578T breast
[5] = system: KM12 colon
[6] = system: MDA-MB-231 breast
[7] = system: MDA-MB-435
[8] = system: SN12C renal
[9] = system: SNB-19 CNS
[10] = system: SR leukemia

Row | Compound | GI50 [1] | TGI [1] | GI50 [2] | TGI [2] | GI50 [3] | TGI [3] | GI50 [4] | TGI [4] | GI50 [5] | TGI [5] | GI50 [6] | TGI [6] | GI50 [7] | TGI [7] | GI50 [8] | TGI [8] | GI50 [9] | TGI [9] | GI50 [10] | TGI [10]
1 | CS(=O)/C(C#N)=C\C=C\c1cccc(Cl)c1 (stereo unspecified) | 2 µM | 11.9 µM | 2.06 µM | 13.4 µM | 4.56 µM | 16.2 µM | 13.1 µM | 52.6 µM | 1.42 µM | 4 µM | 2.73 µM | 11.7 µM | 2.34 µM | 10.6 µM | 2.74 µM | 12.2 µM | 1.81 µM | 5.54 µM | 0.636 µM | > 100 µM
2 | O=C1c2ccccc2C(=O)c2c(NCCNCCO)ccc(NCCNCCO)c21 | 2.98 µM and 7.28 µM and 6.25 µM | 14.9 µM and 20.7 µM and 21.7 µM | 2.31 µM and 2.42 µM and 4.94 µM | 45.2 µM and > 45.9 µM and > 100 µM | 0.422 µM and 0.473 µM and 0.509 µM | 4.19 µM and 3.82 µM and 4.76 µM | 0.333 µM and 0.208 µM and 1.22 µM | 2.49 µM and 4.02 µM and 5.69 µM | 2.4 µM and 2.47 µM and 3.52 µM | 9.12 µM and 21.1 µM and 20.3 µM | 1.56 µM and 1.63 µM and 1.52 µM | 5.85 µM and 6.54 µM and 4.47 µM | 2.43 µM and 3.09 µM and 1.95 µM | 7.22 µM and 13.2 µM and 6.06 µM | 0.183 µM and 0.358 µM and 0.292 µM | 4.57 µM and 12.5 µM and 9.84 µM | 0.372 µM and 0.625 µM and 0.584 µM | 4.19 µM and 9.76 µM and 5.58 µM | 1.49 µM and 0.492 µM and 0.267 µM | 13.2 µM and 36.8 µM
3 | NS(=O)(=O)c1cccc(-c2cc3ccncc3cc2OCc2ccccc2)c1 | 7.65 µM | > 25 µM | 10.6 µM | > 25 µM | 11.6 µM | > 25 µM | 4.2 µM | > 18.4 µM | 10.7 µM | > 25 µM | 7.37 µM | > 23.9 µM | 12.7 µM | > 25 µM | 14.5 µM | > 25 µM | 19.1 µM | > 25 µM | 11.6 µM | > 25 µM
4 | Cc1ccc(C2NC(=S)N3C(c4ccc(C)cc4)NC(=S)N23)cc1 (stereo unspecified) | 10.3 µM | 23.7 µM | 2.68 µM | 7.01 µM | 5.89 µM | 20.1 µM | 4.74 µM | 25 µM | 4.04 µM | 17.4 µM | 9.16 µM | 24 µM | 0.666 µM | 4.14 µM | 5.88 µM | 19.4 µM | 5.06 µM | 17.7 µM | 0.491 µM | 3.55 µM
5 | Nc1ncnc2c1nc(N)n2C1OC(CO)C(O)C1O (stereo unspecified) | 1.65 µM | 3.36 µM | 0.318 µM | 1.59 µM | 0.311 µM | 2.71 µM | 2.45 µM | > 28.4 µM | 0.266 µM | 0.867 µM | 0.518 µM | 4.86 µM | 0.153 µM | 0.773 µM | 0.418 µM | 3.21 µM | 1.34 µM | 6.28 µM | 0.524 µM | 4.38 µM
6 | CCCCCCCCCCCCNC(=O)[C@H]1CSC(c2cc(Br)cs2)N1 (stereo partly specified) | 0.894 µM | 1.78 µM | 0.971 µM | 2.04 µM | 0.822 µM | 1.56 µM | 1.09 µM | 2.51 µM | 1.05 µM | 2.37 µM | 0.83 µM | 1.61 µM | 0.665 µM | 1.31 µM | 1.11 µM | 2.56 µM | 2.48 µM | 8.49 µM | 0.967 µM | 2.27 µM
7 | O=C(N/N=C/c1ccncc1)c1ccc(C(F)(F)F)nc1Nc1cccc(C(F)(F)F)c1 | 0.613 µM | 3.59 µM | 1.48 µM | 4.97 µM | 2 µM | 7.29 µM | 2.02 µM | 8.51 µM | 3.23 µM | 12.4 µM | 1.81 µM | 9.43 µM | 3.66 µM | 13.7 µM | 2.37 µM | 11.5 µM | 2.67 µM | 11.8 µM | 0.271 µM | 1.74 µM
8 | COc1ccccc1N(C(C)=O)C1=C(Cl)C(=O)c2ccccc2C1=O | 1.89 µM | 8.25 µM | 1.45 µM | 3.3 µM | 3.03 µM | 12.6 µM | 2.7 µM | > 71.9 µM | 1.06 µM | 5.48 µM | 2.03 µM | 6.23 µM | 1.9 µM | 4.55 µM | 2.83 µM | 12.1 µM | 3.16 µM | > 40.8 µM | 1.78 µM | 5.16 µM
9 | N#Cc1ccc(N2Cc3cc(Cl)ccc3OC3=C2C(=O)N(Cc2ccc(F)cc2)C3=O)cc1 | 0.174 µM | 0.356 µM | 0.186 µM | 0.38 µM | 2.72 µM | 10.1 µM | 1.02 µM | 13.6 µM | 1.83 µM | 6.59 µM | 0.636 µM | 1.51 µM | 0.607 µM | 1.44 µM | 0.567 µM | 1.19 µM | 1.54 µM | 9.24 µM | 0.275 µM | 1.12 µM
10 | O=C1c2cccc3cccc(c23)C(=O)N1CC#Cc1ccc2c3c(cccc13)C(=O)N(CCN1CCNCC1)C2=O | 9.51 µM | 34.4 µM | 2.72 µM | 10.5 µM | 5.09 µM | 30.1 µM | 11.2 µM | 33.7 µM | 2.12 µM | 4.6 µM | 1.85 µM | 3.67 µM | 1.86 µM | 3.47 µM | 1.71 µM | 3.68 µM | 1.96 µM | 4.18 µM | 1.98 µM | 4.78 µM
11 | Cc1cc(Br)c2nsnc2c1[N+](=O)[O-] | 3.95 µM | 12 µM | 1.6 µM | 3.26 µM | 4.59 µM | 16.3 µM | 2.97 µM | 18.4 µM | 0.245 µM | 0.665 µM | 5.01 µM | 15.6 µM | 2.86 µM | 11.1 µM | 4.93 µM | 17.2 µM | 7.63 µM | 20.6 µM | 0.706 µM | 3.23 µM
12 | CC(=O)Nc1c(I)c(C(=O)O)c(I)c(N(C)C(C)=O)c1I | > 100 µM | > 100 µM | > 100 µM | > 100 µM | > 100 µM | > 100 µM | 46.4 µM | > 100 µM | > 100 µM | > 100 µM | > 100 µM | > 100 µM | > 100 µM | > 100 µM | > 100 µM | > 100 µM | > 100 µM | > 100 µM | > 100 µM | > 100 µM
13 | C[C@@H](Oc1cc(-c2cnn(C3CC4(CNC4)C3)c2)cnc1N)c1c(Cl)ccc(F)c1Cl | 6.49 µM | 19.4 µM | 7.58 µM | 21.4 µM | 2.3 µM | 13.4 µM | 3.87 µM | 27.1 µM | 0.111 µM | 7.42 µM | 2.23 µM | 14.4 µM | 1.16 µM | 14.2 µM | 2.59 µM | 13.8 µM | 9.7 µM | 24.3 µM | 0.0769 µM | 2.05 µM
14 | CCc1ccc(Oc2nccc(-c3c(-c4ccc(F)cc4)ncn3C3CCNCC3)n2)cc1 | 5.55 µM | 13.1 µM | 5.5 µM | 14.6 µM | 4.13 µM | 8.53 µM | 7.01 µM | 17.1 µM | 6.01 µM | 14.3 µM | 5.16 µM | 13.6 µM | 4.47 µM | 8.77 µM | 5.19 µM | 13.9 µM | 7.84 µM | 17.2 µM | 7.25 µM | 18.1 µM
15 | Oc1[nH]c2ccc(Cl)cc2c1/C=c1/ccc2c(c1)N=C(c1ccc(C(F)(F)F)cc1)N=2 | 1.87 µM | 4.75 µM | 2.74 µM | 9.55 µM | 2.28 µM | 4.78 µM | 2.4 µM | 6.86 µM | 2.08 µM | 7.63 µM | 1.75 µM | 3.63 µM | 1.9 µM | 4.7 µM | 2.37 µM | 6.72 µM | 3.12 µM | 17 µM | 2.43 µM | 5.38 µM
16 | NC(Cn1ccc(=O)c(O)c1)C(=O)O (stereo unspecified) | – | > 100 µM | – | > 100 µM | – | > 100 µM | – | > 100 µM | – | > 100 µM | – | > 100 µM | – | > 100 µM | – | > 100 µM | – | > 100 µM | – | > 100 µM
17 | O=S(=O)(CC(O)C(Cl)(Cl)Cl)NNc1ccccc1 (stereo unspecified) | – | > 100 µM | – | > 100 µM | – | > 100 µM | – | > 100 µM | – | > 100 µM | – | > 100 µM | – | > 100 µM | – | > 100 µM | – | > 100 µM | – | > 100 µM
18 | O=C1/C(=C\c2ccc([N+](=O)[O-])cc2)CS(=O)(=O)C/C1=C/c1ccc([N+](=O)[O-])cc1 | – | 0.845 µM and 1.12 µM | 0.121 µM | – | 0.284 µM | 3.94 µM | 0.447 µM | 39.4 µM | 0.25 µM | 1.46 µM | 0.36 µM | 0.533 µM | 0.208 µM | 0.808 µM and 1.5 µM | 0.344 µM and 0.366 µM | 1.56 µM | – | 22.2 µM | 0.908 µM | –
19 | Cc1ccc(-n2nnc3c(sc4ccccc43)c2=O)cc1 | > 100 µM | > 100 µM | 3.8 µM | > 100 µM | 3.8 µM | 26.5 µM | 2.18 µM | 8.71 µM | 3.81 µM | > 100 µM | 4.04 µM | > 100 µM | 14.6 µM | > 100 µM | > 100 µM | > 100 µM | 6.22 µM | > 100 µM | > 100 µM | > 100 µM
20 | COc1ccc(C2=NNC(c3cc(Cc4ccc(O)c(C5CC(c6ccc(OC)cc6)=NN5)c4)ccc3O)C2)cc1 (stereo unspecified) | 4.66 µM | 51.6 µM | 30.2 µM | > 100 µM | 8.64 µM | > 100 µM | 5.58 µM | 68 µM | 22.6 µM | > 100 µM | 14.3 µM | 83.1 µM | 8.52 µM | > 100 µM | 8.84 µM | > 100 µM | 6.89 µM | > 100 µM | 16.4 µM | > 100 µM
21 | O=C1c2ccccc2-c2c1c1c(O)cccc1n2CCCc1ccccc1 | 16 µM | 63.6 µM | 24.9 µM | > 100 µM | 43 µM | > 100 µM | 41.7 µM | > 100 µM | 4.54 µM | > 100 µM | 70 µM | > 100 µM | 16.7 µM | > 100 µM | 14 µM | 67.9 µM | 85.2 µM | > 100 µM | 4.05 µM | > 100 µM
